From patent US5597832A (Abbott Laboratories, priority 1994, dated 1997)
“Also recorded” adds a separate entry of the source. Structures can show the parent of a compound that is named as a salt. Where two headings read alike, the source gives them in different places.

How the values were obtained:
D-1 receptor = experiment: Adenylate cyclase assay (agonist activity, cAMP); format: biochemical, goldfish retina or rat striatum
[1] = system: striatal dopamine receptors; experiment: animal or person; format: in vivo; settings: Rattus norvegicus, sc, read-out: EC50, rotation behavior
dopamine D-2 receptor = biological target: T1, dopamine D-2 receptor (Rattus norvegicus, UniProt P61169); experiment: D-2 receptor competitive binding, [3H]-spiroperidol, homogenized rat caudate; settings: rat caudate, [3H]-spiroperidol; read-out: D-2 Ki
T1 construct: Homogenized rat caudate was the source of the D-2 receptors; from tissue; host or cells: rat caudate homogenate
T1 sequence (P61169 whole entry): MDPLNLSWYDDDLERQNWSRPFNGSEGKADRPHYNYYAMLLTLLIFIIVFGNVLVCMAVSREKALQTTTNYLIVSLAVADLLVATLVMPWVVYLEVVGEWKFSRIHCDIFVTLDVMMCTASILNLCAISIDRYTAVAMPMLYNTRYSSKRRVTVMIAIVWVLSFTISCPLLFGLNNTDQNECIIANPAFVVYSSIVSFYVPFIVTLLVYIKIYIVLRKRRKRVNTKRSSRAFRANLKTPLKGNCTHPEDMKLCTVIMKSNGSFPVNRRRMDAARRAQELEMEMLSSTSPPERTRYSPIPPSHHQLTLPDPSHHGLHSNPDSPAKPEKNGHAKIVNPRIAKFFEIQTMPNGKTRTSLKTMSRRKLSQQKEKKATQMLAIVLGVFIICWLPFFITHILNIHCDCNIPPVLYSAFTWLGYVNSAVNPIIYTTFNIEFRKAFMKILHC

dopamine D-1 receptor = dopamine D-1 receptor (Rattus norvegicus, UniProt P18901); experiment: biochemical
dopamine D-1 receptor, sequence (P18901 whole entry): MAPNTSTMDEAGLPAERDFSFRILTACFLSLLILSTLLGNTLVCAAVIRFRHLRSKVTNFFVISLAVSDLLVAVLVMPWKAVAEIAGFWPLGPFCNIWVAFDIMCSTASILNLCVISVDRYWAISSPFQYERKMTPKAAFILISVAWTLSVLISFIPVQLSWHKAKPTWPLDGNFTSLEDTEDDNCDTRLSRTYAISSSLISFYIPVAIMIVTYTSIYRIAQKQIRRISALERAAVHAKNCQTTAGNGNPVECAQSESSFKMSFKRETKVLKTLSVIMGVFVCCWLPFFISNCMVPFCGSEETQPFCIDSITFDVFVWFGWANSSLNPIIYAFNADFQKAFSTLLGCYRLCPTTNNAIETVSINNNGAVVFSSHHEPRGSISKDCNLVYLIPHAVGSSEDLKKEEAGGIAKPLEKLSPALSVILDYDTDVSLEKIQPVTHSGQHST

[2] = goldfish retina or rat striatum homogenate

Row | Molecule | ED50 [1] [µmol/kg] | Ki (dopamine D-2 receptor) [nM] | Intrinsic Activity (%) (D-1 receptor) | Ki (dopamine D-1 receptor) [nM] | also measured
1 | 2-propyl-4,5,5a,6,7,11b-hexahydro-1-thia-5-aza-cyc! opent-2-ena[c]phenanthrene-10-ol hydrobromide [Example 44] |  |  |  |  | agonist/antagonist properties at dopamine receptor (D-1 receptor; hydrobromide): no agonist properties; also recorded: dopamine antagonist
2 | CCc1cc2c(s1)CN[C@H]1CCc3cc(O)c(O)cc3[C@H]21 (relative stereo) [Example 3, trans-2-ethyl-4,5,5a,6,7,11b-hexahydro-3-thia-5-aza-cyclopent-1-ena[c]phenanthrene-9,10-diol hydrobromide] | 0.077 |  |  |  | 
3 | CCCc1cc2c(s1)CN[C@H]1CCc3cc(O)c(O)cc3[C@H]21 (relative stereo) [Example 5, trans-2-propyl-4,5,5a,6,7,11b-hexahydro-3-thia-5-aza-cyclopent-1-ena[c]phenanthrene-9,10-diol hydrobromide] | 0.15 |  |  |  | 
4 | CC(C)(C)c1cc2c(s1)CN[C@H]1CCc3cc(O)c(O)cc3[C@H]21 (relative stereo) [Example 6, trans-2-(1,1-dimethylethyl)-4,5,5a,6,7,11b-hexahydro-3-thia-5-aza-cyclopent-1-ena[c]phenanthrene-9,10-diol hydrobromide] | 0.12 |  |  |  | 
5 | CC(C)(C)Cc1cc2c(s1)CN[C@H]1CCc3cc(O)c(O)cc3[C@H]21 (relative stereo) [Example 10, trans-2-(2,2-Dimethylpropyl)-4,5,5a,6,7,11b-hexahydro-3-thia-5-aza-cyclopent-1-ena[c]-phenanthrene-9,10-diol] |  | 4600 | 50 | 560 | EC50 (D-1 receptor; [2]): 216 nM
6 | Oc1cc2c(cc1O)[C@@H]1c3sc(-c4ccccc4)cc3CN[C@H]1CC2 (relative stereo) [Example 19, trans-2-phenyl-4,5,5a,6,7,11b-hexahydro-1-thia-5-aza-cyclopent-2-ena[c]phenanthrene-9,10-diol hydrobromide] |  | 750 | 79 | 360 | EC50 (D-1 receptor): 25 nM
7 | Cc1cc2c(s1)CN[C@H]1CCc3cc(O)c(O)cc3[C@H]21 (relative stereo) [Example 22, trans-2-methyl-4,5,5a,6,7,11b-hexahydro-3-thia-5-aza-cyclopent-1-ena[c]phenanthrene-9,10-diol hydrobromide] | 0.2 |  |  |  | 
8 | CCCc1nc2c(s1)[C@H]1c3cc(O)c(O)cc3CC[C@@H]1NC2 (relative stereo) [Example 27, trans-2-propyl-4,5,5a,6,7,11b-hexahydro-1-thia-3,5-diaza-cyclopent-2-ena[c]phenanthrene-9,10-diol dihydrobromide] | > 1 | 210 | 93 | 11 | EC50 (D-1 receptor; [2]): 120 nM
9 | CCCc1nc2c(o1)[C@@H]1c3cc(O)c(O)cc3CC[C@H]1NC2 (relative stereo) [Example 29, trans-2-Propyl-4,5,5a,6,7,11b-hexahydro-1-oxa-3,5-diaza-cyclopent-2-ena[c]phenanthrene-9,10-diol dihydrobromide] | 0.41 |  | 81 |  | EC50 (D-1 receptor): 28 nM
10 | Oc1cc2c(cc1O)[C@H]1c3cc(-c4cccs4)sc3CN[C@@H]1CC2 (relative stereo) [Example 37, trans-2-(2-Thiophenyl)-4,5,5a,6,7,11b-hexahydro-3-thia-5-aza-cyclopent-1-ena[c]phenanthrene-9,10-diol hydrobromide] |  | 3190 | 65 | 710 | EC50 (D-1 receptor; [2]): 332 nM
11 | CCCCCCc1cc2c(s1)CN[C@@H]1CCc3cc(O)c(O)cc3[C@@H]21 (relative stereo) [Example 38, trans-2-Hexyl-4,5,5a,6,7,11b-hexahydro-3-thia-5-aza-cyclopent-1-ena[c]phenanthrene-9,10-diol TFA salt] |  | 2580 | 58 | 1430 | EC50 (D-1 receptor; [2]): 285 nM
12 | Oc1cc2c(cc1O)[C@H]1c3cc(CC4CCCC4)sc3CN[C@@H]1CC2 (relative stereo) [Example 39, trans-2-(Cyclopentylmethyl)-4,5,5a,6,7,11b-hexahydro-3-thia-5-aza-cyclopent-1-ena[c]phenanthrene-9,10-diol hydrobromide] |  | 1620 | 93 | 450 | EC50 (D-1 receptor; [2]): 110 nM
13 | Oc1cc2c(cc1O)[C@H]1c3cc(-c4ccccc4)oc3CN[C@@H]1CC2 (relative stereo) [Example 42, trans-2-Phenyl-4,5,5a,6,7,11b-hexahydro-3-oxa-5-aza-cyclopent-1-ena[c]phenanthrene-9,10-diol hydrochloride] |  | 640 | 59 | 453 | EC50 (D-1 receptor): 78 nM
14 | CCCc1csc2c1CN[C@@H]1CCc3cc(O)c(O)cc3[C@@H]21 (relative stereo) [Example 52, trans-3-propyl-4,5,5a,6,7,11b-hexahydro-1-thia-5-aza-cyclopent-2-ena[c]phenanthrene-9,10-diol hydrochloride] | 0.32 |  |  |  | 
15 | CCCc1nc2c(o1)CN[C@@H]1CCc3cc(O)c(O)cc3[C@@H]21 (relative stereo) [Example 53, trans-2-propyl-4,5,5a,6,7,11b-hexahydro-1,5-diaza-3-oxa-cyclopent-1-ena[c]phenanthrene-9,10-diol dihydrobromide] |  | 230 | 83 | 154 | EC50 (D-1 receptor; [2]): 1000 nM
16 | CCc1cc2c(s1)CN[C@H]1CCc3cc(O)c(O)cc3[C@H]21 (single isomer, unassigned) [Example 4, (-)-trans-2-ethyl-4,5,5a,6,7,11b-hexahydro-3-thia-5-aza-cyclopent-1-ena[c]phenanthrene-9,10-diol hydrobromide] | 0.04 |  |  |  | 
17 | CCCc1cc2c(s1)CN[C@H]1CCc3cc(O)c(O)cc3[C@H]21 (single isomer, unassigned) [Example 20, (-)-trans-2-propyl-4,5,5a,6,7,11b-hexahydro-3-thia-5-aza-cyclopent-1-ena[c]phenanthrene-9,10-diol hydrobromide] | 0.11 |  |  |  | 
18 | Cc1cc2c(s1)CN[C@H]1CCc3cc(O)c(O)cc3[C@H]21 (single isomer, unassigned) [Example 23, (-)-trans-2-Methyl-4,5,5a,6,7,11b-hexahydro-3-thia-5-aza-cyclopent-1-ena[c]-phenanthrene-9,10-diol] | 0.05 |  |  |  | 
19 | CC(C)(C)c1cc2c(s1)CN[C@H]1CCc3cc(O)c(O)cc3[C@H]21 (single isomer, unassigned) [Example 24, (-)-trans-2-(1,1-Dimethylethyl)-4,5,5a,6,7,11b-hexahydro-3-thia-5-aza-cyclopent-1-ena[c]-phenanthrene-9,10-diol] | 0.04 |  |  |  | 
20 | CCCc1cc2c(s1)CNC1CCc3cc(OC(C)=O)c(OC(C)=O)cc3C21 (single isomer, unassigned; (-)) [Example 48, (-)-trans-9,10-Diacetyloxy-2-propyl-4,5,5a,6,7,11b-hexahydro-3-thia-5-aza-cyclopent-1-ena[c]phenanthrene hydrochloride] | 0.04 |  |  |  | 
21 | Cc1ccc(-c2cc3c(s2)CNC2CCc4cc(O)c(O)cc4C32)cc1 (stereo not shown) [Example 46, 2-(4-Methylphenyl)-4,5,5a,6,7,11b-hexahydro-3-thia-5-aza-cyclopent-1-ena[c]phenanthrene-9,10-diol hydrobromide] |  | > 5000 |  | > 5000 | 
